Measurements taken from PubChem BioAssay (NCI).
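The compound was tested at five concentrations on cells cultured in 96-well plates, with a 48-hour exposure period. TGI: concentration producing complete growth inhibition.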

Key:
Experiment in all cases: DTP human tumour cell line panel, 48 h
NCI-H23 lung = tested on: NCI-H23 lung
U251 CNS = tested on: U251 CNS
KM12 colon = tested on: KM12 colon
HCT-15 colon = tested on: HCT-15 colon
OVCAR-4 ovarian = tested on: OVCAR-4 ovarian
HCT-116 colon = tested on: HCT-116 colon
MCF7 breast = tested on: MCF7 breast
SW-620 colon = tested on: SW-620 colon
DU-145 prostate = tested on: DU-145 prostate
SK-MEL-2 melanoma = tested on: SK-MEL-2 melanoma
NCI/ADR-RES ovarian = tested on: NCI/ADR-RES ovarian
MDA-N = tested on: MDA-N
BT-549 breast = tested on: BT-549 breast

SMILES	TGI (NCI-H23 lung) [µM]	TGI (U251 CNS) [µM]	TGI (KM12 colon) [µM]	TGI (HCT-15 colon) [µM]	TGI (OVCAR-4 ovarian) [µM]	TGI (HCT-116 colon) [µM]	TGI (MCF7 breast) [µM]	TGI (SW-620 colon) [µM]	TGI (DU-145 prostate) [µM]	TGI (SK-MEL-2 melanoma) [µM]	TGI (NCI/ADR-RES ovarian) [µM]	TGI (MDA-N) [µM]	TGI (BT-549 breast) [µM]
O=C(NCCN(CCNC(=O)c1cccc(O)c1O)CCNC(=O)c1cccc(O)c1O)c1cccc(O)c1O	> 57.4	> 89	> 100	> 100	> 100	> 100	> 100	> 100	> 78.9	> 100	> 100	> 100	> 100
CCN1CCC(O)(c2ccc([N+](=O)[O-])cc2)C(C(=O)c2ccc([N+](=O)[O-])cc2)C1 (centres undefined)	36.4	> 100	32.1	52.9	83.9	32.6	31.4	> 100	32.3	> 100	> 100	39.1	30.8
C[C@@H](CC(=O)OCc1ccccc1)OC1OC(COC(=O)C(C)(C)C)C(OC(=O)C(C)(C)C)C(OC(=O)C(C)(C)C)C1OC(=O)C(C)(C)C (some centres undefined)	> 100	> 100	> 100	> 100	> 100	> 100	> 100	> 100	> 100	> 100	> 100	> 100	> 100
